Reference: patent US8841413B2, “Antidiabetic compounds” (Cadila Healthcare Limited, priority 2006, dated 2014)
Read-outs that look alike come from different tables or passages of the source.

Tests used:
[1] = system: C57BL/6J mice; assay: Acute single dose 120-min time-course experiment, in vivo glucose reduction in C57BL/6J mice; set-up: unit not given here; conditions: male C57BL/6J mice, Mean ± SEM
Procedure: All the animal experiments were carried out according to the internationally valid guidelines following approval by the ‘Zydus Research Center animal ethical committee’. […] Two days prior to the study, the animals were randomised and divided into 5 groups (n=6), based upon their fed glucose levels. On the day of experiment, food was withdrawn from all the cages, water was given ad-libitum and were kept for overnight fasting. Vehicle (normal saline)/test/standard compounds were administered intraperitoneally (i.p.) or orally, on a body weight basis. […] Blood samples were centrifuged and the separated serum was immediately subjected for the glucose estimation. Serum for insulin estimation was stored at −70° C. until used for the insulin estimation. The glucose estimation was carried out with DPEC-GOD/POD method (Ranbaxy Fine Chemicals Limited, Diagnostic division, India), using Spectramax-190, in 96-microwell plate reader (Molecular devices Corporation, Sunnyvale, Calif.). […] The AUC and BCAUC obtained from graphs were analyzed for one way ANOVA, followed by Dunnett's post test, using Graph Pad prism software. Furthermore, the insulin estimation was carried out using rat/mouse insulin ELISA kit (Linco research, Mo. USA).

[2] = molecular target: DPP IV (Homo sapiens, UniProt P27487); assay: Stability against DPP IV enzyme; type: in vitro ADME; conditions: 2 μM, 37° C.; for half-life: read-out: half-life (t1/2) with DPP-IV enzyme
Sequence of DPP IV (P27487 whole entry, species assumed): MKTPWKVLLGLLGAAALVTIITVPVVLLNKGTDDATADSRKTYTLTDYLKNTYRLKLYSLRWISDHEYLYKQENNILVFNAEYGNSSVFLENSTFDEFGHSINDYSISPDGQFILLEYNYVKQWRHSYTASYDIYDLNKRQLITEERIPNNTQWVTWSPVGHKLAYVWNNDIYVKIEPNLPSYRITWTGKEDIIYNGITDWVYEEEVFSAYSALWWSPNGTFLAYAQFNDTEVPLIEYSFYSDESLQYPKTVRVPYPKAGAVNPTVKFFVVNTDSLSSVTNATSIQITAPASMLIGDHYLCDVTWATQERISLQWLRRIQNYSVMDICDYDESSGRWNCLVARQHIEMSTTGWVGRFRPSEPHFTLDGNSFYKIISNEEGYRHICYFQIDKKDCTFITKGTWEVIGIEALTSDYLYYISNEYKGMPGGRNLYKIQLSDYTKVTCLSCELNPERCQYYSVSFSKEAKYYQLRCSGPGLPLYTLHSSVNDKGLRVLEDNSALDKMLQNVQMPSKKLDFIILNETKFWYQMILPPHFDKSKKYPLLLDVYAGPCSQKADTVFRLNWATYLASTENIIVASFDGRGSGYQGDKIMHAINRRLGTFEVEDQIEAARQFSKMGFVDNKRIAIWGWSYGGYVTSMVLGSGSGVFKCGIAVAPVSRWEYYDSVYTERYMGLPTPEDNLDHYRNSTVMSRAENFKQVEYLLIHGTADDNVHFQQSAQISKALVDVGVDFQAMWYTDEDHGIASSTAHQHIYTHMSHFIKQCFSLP
Procedure: (§1) Reactions were terminated by the addition of TFA/H2O (15 mL, 10% (v/v)). […] The column was equilibrated with TFA/H2O, at a flow rate of 1 mL/min. […] The absorbance was monitored at 206 nm using UV detector and peaks were collected manually prior to ESI-MS analysis.

[3] = Stability in human plasma; type: in vitro ADME; conditions: 2 μM, 37° C.; for half-life: human, plasma, read-out: half-life (t1/2) in human plasma
Procedure: as §1

[4] = molecular target: T1, Human GLP-1 receptor (Homo sapiens, UniProt P43220); type: cell-based; conditions: for activity in human GLP-1 receptor assay (in words): in vitro, dipeptides, FIG. 3
T1 construct: The full-length cDNA was cloned in pcDNA3.1(+); expressed in transfected cells
T1 sequence (P43220 24-463): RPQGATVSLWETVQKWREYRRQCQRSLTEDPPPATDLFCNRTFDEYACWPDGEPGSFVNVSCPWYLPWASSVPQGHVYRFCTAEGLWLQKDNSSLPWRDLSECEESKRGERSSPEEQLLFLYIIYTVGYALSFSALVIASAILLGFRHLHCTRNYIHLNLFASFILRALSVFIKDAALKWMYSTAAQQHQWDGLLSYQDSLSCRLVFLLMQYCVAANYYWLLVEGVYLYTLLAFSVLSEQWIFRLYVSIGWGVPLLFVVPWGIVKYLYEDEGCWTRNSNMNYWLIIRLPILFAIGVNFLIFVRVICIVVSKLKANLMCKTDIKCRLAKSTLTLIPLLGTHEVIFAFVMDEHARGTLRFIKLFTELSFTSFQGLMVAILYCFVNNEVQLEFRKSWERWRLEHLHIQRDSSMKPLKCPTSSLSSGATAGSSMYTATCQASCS
Procedure: The novel peptidomimetics were screened for Human GLP-1 receptor (HGLP-1 R) agonist activity (in vitro), using the cAMP cell-based assay, in stably transfected CHO/human GLP1R cells. […] CHO cells were grown in Ham's F12 medium containing L-Glutamine (2 mM), HEPES (25 mM), NaHCO3 (1.1 g/L) and supplemented with NewBorn Calf Serum (NBCS; 10%), Penicillin (50 U/ml (v/v)) and Streptomycin (50 ug/ml (v/v)). Cells were split every 3 days 1:8.
The cDNA encoding the human GLP-1 receptor was isolated by RT-PCR according to standard protocol. The full-length cDNA was cloned in pcDNA3.1(+). […] Clones expressing the receptor were generated by G418 (800 μg/ml active, Sigma) selection. The stable clones were thereafter maintained at 500 ug/ml (G418). The selected clone was used between passages 9-25 for cAMP assays.
The trypsin was inactivated using Ham's F12 medium containing 10% NBCS and the cells were suspended in 2 ml of complete medium. […] The medium was aspirated off from the 12 well plate and the cells were washed once using Ham's F12 (plain). […] The cells were incubated with the test compounds for 30 min in humidified atmosphere and 37° C. After the incubation, the medium was removed and cells were washed once with plain Ham's F12. Subsequently, the cells were lysed by adding 500 ul of ice cold 0.1 N HCl to each well and shaking for 30 minutes at 200 rpm. […] The total cAMP was estimated from the sample according to the manufacturer's protocol using Cyclic AMP immunoassay kit (R&D systems, Minneapolis. MN). The remaining supernatant is used to determine the protein concentration using micro BCA (Sigma). Data is calculated as percent of control (Vehicle: water) and expressed as Mean±SD.

[5] = Stability against liver microsomes; type: in vitro ADME, human; conditions: 2 μM, 37° C.; for half-life: human, microsomes, read-out: half-life (t1/2) with liver microsomes
Procedure: as §1

[6] = Stability in simulated gastric fluid; type: in vitro ADME; conditions: 2 μM, 37° C., pH 1.5, pepsin; for half-life: simulated gi fluid, read-out: half-life (t1/2) in simulated gastric fluid
Procedure: as §1

[7] = Stability in simulated intestinal fluid; type: in vitro ADME; conditions: 2 μM, 37° C., pH 7.5; for half-life: simulated gi fluid, read-out: half-life (t1/2) in simulated intestinal fluid
Procedure: as §1

[8] = molecular target: T2, human glucagon receptor (Homo sapiens, UniProt P47871); assay: In vitro human glucagon antagonist activity (inhibition of cAMP production), CHO/human glucagon R cells; type: cell-based; conditions: in vitro, FIG. 3 / FIG. 4
T2 construct: The full-length cDNA was cloned in pcDNA3.1(Invitrogen); expressed in transfected cells
T2 sequence (P47871 26-477): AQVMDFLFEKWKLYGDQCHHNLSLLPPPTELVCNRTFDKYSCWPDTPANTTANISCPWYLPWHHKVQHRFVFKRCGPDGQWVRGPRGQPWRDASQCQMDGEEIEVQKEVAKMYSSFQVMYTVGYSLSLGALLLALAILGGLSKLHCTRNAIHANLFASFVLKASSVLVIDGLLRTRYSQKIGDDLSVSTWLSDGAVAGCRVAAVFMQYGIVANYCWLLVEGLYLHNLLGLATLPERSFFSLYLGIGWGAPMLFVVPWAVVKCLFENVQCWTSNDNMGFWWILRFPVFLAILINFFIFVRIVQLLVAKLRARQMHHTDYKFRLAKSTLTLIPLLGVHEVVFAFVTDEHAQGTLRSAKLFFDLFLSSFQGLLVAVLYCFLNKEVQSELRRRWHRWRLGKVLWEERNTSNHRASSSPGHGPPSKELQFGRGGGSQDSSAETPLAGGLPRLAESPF
Procedure: CHO cells were grown in Ham's F12 medium containing L-Glutamine (2 mM), HEPES (25 mM), NaHCO3 (1.1 g/L) and supplemented with newborn Calf Serum (NBCS; 10%), Penicillin (50 U/ml (v/v)) and Streptomycin (50 ug/ml (v/v)). Cells were split every 3 days 1:8.
The full-length cDNA was cloned in pcDNA3.1(Invitrogen). […] Clones expressing the receptor were generated by G418 (800 μg/ml active, Sigma) selection. The stable clones were thereafter maintained at 500 ug/ml (G418). The selected clone was used between passages 9-25 for cAMP assays.
The trypsin was inactivated using Ham's F12 medium containing 10% NBCS and the cells were suspended in 2 ml of complete medium. […] The medium was aspirated off from the 12 well plate and the cells were washed once using Ham's F12 (plain). […] After the incubation; the medium was removed and cells were washed once with plain Ham's F12. Subsequently, the cells were lysed by adding 500 ul of ice cold 0.1 N HCl to each well and shaking for 30 minutes at 200 rpm. The cells were then scrapped, the lysate was collected in micro centrifuge tubes and centrifuged at 12000 rpm for 10 min to remove the debris. 300 ul of supernatant from each micro-centrifuge tube was then removed into a glass tube and dried under N2 for 30 min, for cAMP estimation. The total cAMP was estimated from the sample according to the manufacturer's protocol using Cyclic AMP immunoassay kit (R&D systems, Minneapolis: MN). The remaining supernatant is used to determine the protein concentration using micro BCA (Sigma). Data is calculated as percent of control (Vehicle: water) and expressed as Mean+SD.

Molecule | activity in human Glucagon receptor assay (in words) [8] | activity in human GLP-1 receptor assay (in words) [4] | blood glucose level ([1]; 10 nM/kg, i.p, 0 min) | blood glucose level ([1]; 10 nM/kg, i.p, 30 min) | blood glucose level ([1]; 10 nM/kg, i.p, 60 min) | blood glucose level ([1]; 10 nM/kg, i.p, 120 min) | blood glucose level ([1]; 2 μM/kg, oral, 0 min) | blood glucose level ([1]; 2 μM/kg, oral, 30 min) | blood glucose level ([1]; 2 μM/kg, oral, 60 min) | blood glucose level ([1]; 2 μM/kg, oral, 120 min) | also measured
CCc1cc(OC)ccc1-c1ccc(CC(NC(=O)[C@H](CC(=O)O)NC(=O)[C@H](CO)NC(=O)[C@@H](NC(=O)C(C)(Cc2ccccc2F)NC(=O)[C@@H](NC(=O)CNC(=O)[C@H](CCC(N)=O)NC(=O)C2(NC(=O)[C@@H](N)Cc3c[nH]cn3)CC2)[C@@H](C)O)[C@@H](C)O)C(=O)NC(Cc2ccc(-c3ccccc3C)nc2)C(N)=O)cc1 (single isomer, unassigned) [Seq. ID. No. 34, H-(ACP)-QGT-(α-Me-2F-Phe)-TSD-Bip(OMe)-Bip(Pyr)] | – | – | 180 ± 4.2 | 113 ± 3.2 | 112 ± 2.4 | 110 ± 1.9 | 184 ± 2.2 | 118 ± 3.3 | 112 ± 4.4 | 110 ± 2.9 | –
CCc1cc(OC)ccc1-c1ccc(CC(NC(=O)[C@H](CC(=O)O)NC(=O)[C@H](CO)NC(=O)[C@@H](NC(=O)C(C)(Cc2ccccc2F)NC(=O)[C@@H](NC(=O)CNC(=O)[C@H](CCC(N)=O)NC(=O)C2(NC(=O)[C@@H](N)Cc3c[nH]cn3)CC2)[C@@H](C)O)[C@@H](C)O)C(=O)NC(Cc2ccc(-c3ccccc3F)cc2)C(N)=O)cc1 (single isomer, unassigned) [Seq. ID. No. 35, H-(ACP)-QGT-(α-Me-2F-Phe)-TSD-Bip(OMe)-Bip(2F)] | – | – | 182 ± 4.1 | 112 ± 3.1 | 113 ± 2.6 | 111 ± 1.8 | 183 ± 2.1 | 118 ± 3.4 | 113 ± 4.6 | 111 ± 2.8 | –
CCc1cc(OC)ccc1-c1ccc(CC(NC(=O)[C@H](CC(=O)O)NC(=O)[C@H](CO)NC(=O)[C@@H](NC(=O)C(C)(Cc2ccccc2F)NC(=O)[C@@H](NC(=O)CNC(=O)[C@H](CCC(N)=O)NC(=O)C2(NC(=O)[C@@H](N)Cc3c[nH]cn3)CC2)[C@@H](C)O)[C@@H](C)O)C(=O)NC(Cc2ccc(-c3ccccc3C(F)(F)F)cc2)C(N)=O)cc1 (single isomer, unassigned) [Seq. ID. No. 36, H-(ACP)-QGT-(α-Me-2F-Phe)-TSD-Bip(OMe)-Bip(2CF3)] | – | – | 180 ± 2.8 | 110 ± 3.6 | 112 ± 2.3 | 112 ± 1.6 | 183 ± 2.3 | 119 ± 3.0 | 112 ± 4.3 | 109 ± 2.6 | –
CCc1cc(OC)ccc1-c1ccc(CC(NC(=O)[C@H](CC(=O)O)NC(=O)[C@H](CO)NC(=O)[C@@H](NC(=O)[C@H](Cc2ccccc2)NC(=O)[C@@H](NC(=O)CNC(=O)[C@H](CCC(N)=O)NC(=O)C(C)(C)NC(=O)[C@@H](N)Cc2c[nH]cn2)[C@@H](C)O)[C@@H](C)O)C(=O)NC(Cc2ccc(-c3ccccc3C)cc2)C(N)=O)cc1 (single isomer, unassigned) [compound 13] | – | – | – | – | – | – | – | – | – | – | % degradation in 24 h when incubated with DPP-IV enzyme [2]: 00%; half-life [2]: > 24 h; % degradation in 24 h when incubated with human plasma [3]: 00%; half-life [3]: > 24 h; Human GLP-1 R activity (cAMP release), % activity with respect to control ([4]; 1 nM test compound): 60 ± 0.12%; Human GLP-1 R activity (cAMP release), % activity with respect to control ([4]; 10 nM test compound): 92 ± 0.15%; Human GLP-1 R activity (cAMP release), % activity with respect to control ([4]; 100 nM test compound): 98 ± 0.18%; Human GLP-1 R activity (cAMP release), % activity with respect to control ([4]; 1 μM test compound): 99 ± 0.03%; Human GLP-1 R activity (cAMP release), % activity with respect to control ([4]; 10 μM test compound): 99 ± 0.09%; % degradation in 24 h when incubated with liver microsomes [5]: 86%; half-life [5]: 2 h; % degradation in 24 h when incubated with simulated gastric fluid [6]: 50%; half-life [6]: 4 h; % degradation in 24 h when incubated with simulated intestinal fluid [7]: 00%; half-life [7]: > 24 h
CCc1cc(OC)ccc1-c1ccc(CC(NC(=O)[C@H](CC(=O)O)NC(=O)[C@H](CO)NC(=O)[C@@H](NC(=O)[C@H](Cc2ccccc2)NC(=O)[C@@H](NC(=O)CNC(=O)[C@H](CCC(N)=O)NC(=O)C(C)(C)NC(=O)[C@@H](N)Cc2c[nH]cn2)[C@@H](C)O)[C@@H](C)O)C(=O)NC(Cc2ccc(-c3ccccc3C)nc2)C(N)=O)cc1 (single isomer, unassigned) [compound 14] | – | – | – | – | – | – | – | – | – | – | % degradation in 24 h when incubated with DPP-IV enzyme [2]: 00%; half-life [2]: > 24 h; % degradation in 24 h when incubated with human plasma [3]: 00%; half-life [3]: > 24 h; Human GLP-1 R activity (cAMP release), % activity with respect to control ([4]; 1 nM test compound): 62 ± 0.11%; Human GLP-1 R activity (cAMP release), % activity with respect to control ([4]; 10 nM test compound): 94 ± 0.09%; Human GLP-1 R activity (cAMP release), % activity with respect to control ([4]; 100 nM test compound): 99 ± 0.06%; Human GLP-1 R activity (cAMP release), % activity with respect to control ([4]; 1 μM test compound): 99 ± 0.14%; Human GLP-1 R activity (cAMP release), % activity with respect to control ([4]; 10 μM test compound): 99 ± 0.19%; % degradation in 24 h when incubated with liver microsomes [5]: 84%; half-life [5]: 2 h; % degradation in 24 h when incubated with simulated gastric fluid [6]: 55%; half-life [6]: 4 h; % degradation in 24 h when incubated with simulated intestinal fluid [7]: 00%; half-life [7]: > 24 h
Bip(OMe)-Bip(2CF3) | antagonistic activity | antagonistic activity | – | – | – | – | – | – | – | – | –

The next lines start with results.

activity in human Glucagon receptor assay (in words) [8] | activity in human GLP-1 receptor assay (in words) [4] | Molecule | blood glucose level ([1]; 10 nM/kg, i.p, 0 min) | blood glucose level ([1]; 10 nM/kg, i.p, 30 min) | blood glucose level ([1]; 10 nM/kg, i.p, 60 min) | blood glucose level ([1]; 10 nM/kg, i.p, 120 min) | blood glucose level ([1]; 2 μM/kg, oral, 0 min) | blood glucose level ([1]; 2 μM/kg, oral, 30 min) | blood glucose level ([1]; 2 μM/kg, oral, 60 min) | blood glucose level ([1]; 2 μM/kg, oral, 120 min) | also measured
antagonistic activity | antagonistic activity | Bip(OMe)-Bip(2F) | – | – | – | – | – | – | – | – | –
antagonistic activity | antagonistic activity | Bip(OMe)-Bip(2Me) | – | – | – | – | – | – | – | – | –
antagonistic activity | antagonistic activity | Bip(OMe)-Bip(Pyr) | – | – | – | – | – | – | – | – | –
